{"source": "patent US20230045151A1", "about": "“COMPOSITIONS AND METHODS” (MONASH UNIVERSITY, priority 2020, published 2023)", "key": {"[1]": {"test_system": "C57BL6/J mice exposed intranasally to house dust mite extract (HDM)", "experiment": "HDM animal model of allergic airway inflammation", "type": "in vivo, mouse", "experimental": "Mice received water as a control or L-tyrosine (reagent grade, ≥98% Sigma-Aldrich, St. Louis, Mo.) resuspended in drinking water under sterile conditions at the concentration of 100 mg/kg/day or 500 mg/kg/day (based on the assumption of a mouse consuming 4 ml of water daily). All mice received the treatment 2 weeks prior and throughout the experiment. […] Control mice received 200 μl of saline. […]. For experiments employing antibiotic treatment, 3-week old mice were treated with a combination enrofloxacin (10 mg/kg/day) and amoxicillin with clavulanic acid (1 mg/kg/day) for one week, followed by one week of only amoxicillin with clavulanic acid (1 mg/kg/day). Then, mice were then put on L-tyrosine diet in drinking water for two weeks followed by HDM exposure as before. During this time, mice were maintained on antibiotic treatment with amoxicillin/clavulanic acid until end of experiment.\nMice were anaesthetised by the inhalation of 4% isoflurane in oxygen for 3-5 minutes. 20 μg of protein content of crude house dust mite extract (HDM) (Greer Laboratories Inc., Lenoir, N.C.) in 20 μl of sterile phosphate-buffered saline (PBS) (Gibco™) was applied intranasally on days 0, 11, 12 and 13. Mice were humanely sacrificed with the lethal dose of pentobarbital (Streuli Pharma AG, Uznach, Switzerland) on day 14.\nBronchoalveolar lavage fluid (BALF) was collected by flushing airways with 0.5 ml PBS supplemented with 0.2% bovine serum albumin (Sigma-Aldrich, St. Louis, Mo.). Total cell number was determined with Coulter Counter (IG Instrumenten-Gesellschaft AG, Basel, Switzerland) while differential cell staining performed on cytospins stained with Diff-Quik solution (Dade Behring, Siemens Healthcare Diagnostics, Deerfield, Ill.). Percentages of neutrophils, macrophages, lymphocytes and eosinophils were assessed by counting 200 cells per sample.\nConcentrations of interleukin-4, -5, -13, -17 and IFN-γ in culture supernatants were analysed with mouse Ready-Set-Go!™ ELISA kits (eBioscience™, San Diego, Calif.) according to manufacturer's instructions. To measure the levels of HDM-specific IgG1 and IgE in plasma, half area 96-well plates (Corning) were coated with HDM (10 μg in PBS) overnight at 4° C., followed by the incubation of samples for 2 hours at RT, and the addition of alkaline-phophatase-conjugated goat anti-mouse IgE or IgG1 (both from SouthernBiotech, Birmingham, Ala.; diluted at 1 μg ml-1 in PBS 0.2% BSA) for 2 hours at RT. 4-nitrophenyl phosphate sodium salt hexahydrate (pNPP) (Sigma) was used as a substrate, and the colorimetric reaction was read at 405 nm on the Synergy H1 microplate reader (Biotek, Luzern, Switzerland). To measure the levels of total IgA and IgM as well as hen egg lysozyme (HEL)-specific IgA and IgM in mouse faeces, faecal pellets were homogenized in 0.8 ml cold PBS, centrifuged at 400 g for 5 minutes to remove large debris, filtered through 40 μm cell strainer and centrifuged at 8000 g for 10 minutes to pellet bacteria. The supernatant was collected and loaded for 2 hours at RT on 96-well half area plates coated a day before at 4° C. with anti-IgA (Southern Biotech; 2 μg ml-1), anti-IgM (SouthernBiotech; 2 μg ml-1) or HEL protein (Sigma-Aldrich; 10 μg/ml). This step was followed by the addition of alkalinephophatase-conjugated goat anti-mouse IgA or IgM (both at 1 μg ml-1 in PBS 0.2% BSA) for 2 hours at RT. 4-nitrophenyl phosphate sodium salt hexahydrate (pNPP) (Sigma) was used as a substrate, and the colorimetric reaction was read at 405 nm as before.\nMediastinal lymph nodes were filtered through a 40 μm cell strainer, washed with PBS supplemented with 1% fetal bovine serum and 2 mM EDTA (Invitrogen) (MACS buffer). Lungs were finely cut with scissors, digested with Collagenase IV (Gibco™) in Iscove's modified Dulbecco's medium (IMDM, Gibco™) for 50 min at 37° C. and processed as the lymph nodes."}, "[2]": {"experiment": "Targeted metabolomics for PCS after L-tyrosine feeding", "type": "in vivo, mouse", "experimental": "Mice were fed with L-tyrosine in drinking water (100 mg/kg/day) for 14 days, after which faeces were collected. BALF samples were collected after HDM immunization as per FIG. 1. […] Data represent samples from one experiment. All data are presented as mean values+/−SEM.\nMice received water as a control or L-tyrosine (reagent grade, ≥98% Sigma-Aldrich, St. Louis, Mo.) resuspended in drinking water under sterile conditions at the concentration of 100 mg/kg/day or 500 mg/kg/day (based on the assumption of a mouse consuming 4 ml of water daily). All mice received the treatment 2 weeks prior and throughout the experiment. […] Control mice received 200 μl of saline. For experiments employing antibiotic treatment, 3-week old mice were treated with a combination enrofloxacin (10 mg/kg/day) and amoxicillin with clavulanic acid (1 mg/kg/day) for one week, followed by one week of only amoxicillin with clavulanic acid (1 mg/kg/day). Then, mice were then put on L-tyrosine diet in drinking water for two weeks followed by HDM exposure as before. […]\n25 μL of plasma samples were extracted with 100 μL of chilled methanol containing internal standard (PCS-d4 at 500 ng/ml plasma concentration), shaken on ice for 30 min and centrifuged at 4° C. for 10 min. […] Peak integration and quantitation were performed using Tracefinder 4.1 application (Thermo Scientific)."}, "[3]": {"conditions": "L-tyrosine oral in drinking water"}}, "data": [{"smiles": "N[C@@H](Cc1ccc(O)cc1)C(=O)O", "note": "[L-tyrosine]", "values": [{"measurement": "FoxP3+ Treg cells in the lungs", "setting": "[1]; [3]", "value": "not altered"}, {"measurement": "numbers of T helper cells in the lungs", "setting": "[1]; [3]", "value": "not altered"}, {"measurement": "recruitment of DCs (lungs)", "setting": "[1]; [3]", "value": "reduced"}, {"measurement": "recruitment of neutrophils (BALF)", "setting": "[1]; [3]", "value": "reduced"}, {"measurement": "recruitment of eosinophils (BALF)", "setting": "[1]; L-tyrosine oral in drinking water, 2 weeks prior and throughout, vs water", "value": "reduced"}, {"measurement": "IL-5 concentrations in culture supernatants of mediastinal LNs", "setting": "[1]; L-tyrosine oral in drinking water, not reaching statistical significance", "value": "trend towards a decrease"}, {"measurement": "production of IL-13 by restimulated mediastinal LNs", "setting": "[1]; L-tyrosine oral in drinking water, restimulated with HDM for 4 days", "value": "reduced"}, {"measurement": "protective effect of L-tyrosine under antibiotic treatment (eosinophils, DCs, IL-5 in BALF)", "setting": "[1]; L-tyrosine oral plus enrofloxacin and amoxicillin/clavulanic acid (microbiota depletion)", "value": "abrogated"}, {"measurement": "CCL20 concentrations in the BALF", "setting": "[1]; L-tyrosine-treated wild-type mice exposed to HDM", "value": "reduced"}, {"measurement": "PCS concentrations in the faeces", "setting": "[2]; L-tyrosine in drinking water 100 mg/kg/day for 14 days", "value": "increase"}, {"measurement": "PCS concentrations in the airways (BALF)", "setting": "[2]; L-tyrosine in drinking water 100 mg/kg/day, BALF after HDM immunization", "value": "increase"}]}]}
